# According to ChEMBL document CHEMBL5321275, “Discovery, Optimization, and Evaluation of Novel N-(Benzimidazol-5-yl)-1,3,4-thiadiazol-2-amine Analogues as Potent STAT3 Inhibitors for Cancer Treatment” (J Med Chem, 2023):
# pIC50: −log10 of the molar value. Calls of active or inactive are those of the source. The rule behind the calls is not given here.
# Legend:
# [1] = test system: DU-145; assay: Induction of apoptosis in human DU-145 cells assessed as early apoptotic cells at 1 uM measured after 48 hrs by annexin V-FITC and PI staining based flow cytometry analysis (reference value: 2.5%); type: functional
# [2] = test system: HEK-Blue IL-6; assay: Inhibition of IL-6/JAK/STAT3 signalling pathway in HEK-Blue IL-6 cells at 10 uM incubated for 16 hrs by QUANTI-blue assay relative to control; type: cell-based; settings: Homo sapiens
# [3] = Inhibition of IL-6/JAK/STAT3 signalling pathway in HEK-Blue IL-6 cells incubated for 16 hrs by QUANTI-blue assay; type: cell-based; settings: Homo sapiens, HEK-Blue IL-6, 16 h
# [4] = test system: DU-145; assay: Antiproliferative activity against human DU-145 cells assessed as inhibition of cell growth measured after 96 hrs by MTT assay; type: functional, cell-based; settings: DU-145, 96 h
# [5] = target: T1, Signal transducer and activator of transcription 3 (Homo sapiens, UniProt P40763); assay: Inhibition of STAT3 phosphorylation at Tyr705 residue in human MDA-MB-231 cells incubated for 24 hrs by Western blot analysis; type: cell-based; settings: dose <= 10.0 µM
# [6] = target: T2, Signal transducer and activator of transcription 5A (Homo sapiens) (UniProt P42229); assay: Inhibition of STAT5 phosphorylation in human DU-145 cells at 10 uM measured after 24 hrs by Western blot analysis; type: cell-based
# T2 sequence (whole entry): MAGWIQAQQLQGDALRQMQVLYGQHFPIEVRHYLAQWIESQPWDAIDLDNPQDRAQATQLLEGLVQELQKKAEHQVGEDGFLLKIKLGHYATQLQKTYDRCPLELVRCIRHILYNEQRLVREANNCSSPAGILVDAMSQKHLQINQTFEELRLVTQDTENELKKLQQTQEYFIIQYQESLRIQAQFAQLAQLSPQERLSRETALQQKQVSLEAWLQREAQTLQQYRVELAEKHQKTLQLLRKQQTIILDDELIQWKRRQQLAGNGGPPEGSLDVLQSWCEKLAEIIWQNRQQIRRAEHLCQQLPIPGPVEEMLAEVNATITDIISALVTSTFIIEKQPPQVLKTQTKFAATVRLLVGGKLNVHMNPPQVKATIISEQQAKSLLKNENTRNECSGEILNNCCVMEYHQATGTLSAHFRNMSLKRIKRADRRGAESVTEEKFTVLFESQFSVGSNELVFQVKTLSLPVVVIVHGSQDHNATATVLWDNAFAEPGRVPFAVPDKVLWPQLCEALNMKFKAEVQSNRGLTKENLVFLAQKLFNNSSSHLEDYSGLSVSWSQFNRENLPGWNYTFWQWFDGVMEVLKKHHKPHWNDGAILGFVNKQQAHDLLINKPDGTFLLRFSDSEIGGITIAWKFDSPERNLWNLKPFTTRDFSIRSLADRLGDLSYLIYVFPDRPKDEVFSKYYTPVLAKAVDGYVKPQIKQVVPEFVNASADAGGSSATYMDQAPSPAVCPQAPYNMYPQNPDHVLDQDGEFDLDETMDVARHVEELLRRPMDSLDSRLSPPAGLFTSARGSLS
# [7] = target: T1, Signal transducer and activator of transcription 3; assay: Inhibition of 5-carboxyfluorescein-GY(PO3H2)LPQTV-NH2 peptide probe binding to human STAT3 SH2 domain preincubated for 30 mins followed by probe addition and measured after 1 hr by fluorescence polarization assay
# [8] = target: T1, Signal transducer and activator of transcription 3; assay: Inhibition of STAT3 dimerization in human DU-145 cells assessed as increase in amount of STAT3 monomer at upto 10 uM measured after 12 hrs; type: cell-based
# [9] = test system: MDA-MB-231; assay: Induction of cell cycle arrest in human MDA-MB-231 cells assessed as accumulation of cells at G0/G1 phase measured after 24 hrs by PI staining based flow cytometry analysis; type: functional; settings: dose <= 10.0 µM
# [10] = test system: MDA-MB-231; assay: Induction of apoptosis in human MDA-MB-231 cells assessed as late apoptotic cells at 1 uM measured after 48 hrs by annexin V-FITC and PI staining based flow cytometry analysis (reference value: 3.1%); type: functional
# [11] = test system: MDA-MB-231; assay: Induction of apoptosis in human MDA-MB-231 cells assessed as late apoptotic cells at 5 uM measured after 48 hrs by annexin V-FITC and PI staining based flow cytometry analysis (reference value: 3.1%); type: functional
# [12] = test system: DU-145; assay: Induction of apoptosis in human DU-145 cells assessed as cell apoptotic percentage at 10 uM measured after 48 hrs by annexin V-FITC and PI staining based flow cytometry analysis relative to control; type: functional
# [13] = Toxicity in Balb/c mouse assessed as effect on liver at 50 mg/kg by hematoxylin and eosin staining based histopathological analysis; type: organism-based; settings: in vivo
# [14] = Drug concentration in ICR mouse plasma at 5 mg/kg, iv measured at 2 mins; type: ADME, organism-based
# [15] = AUC (0 to t) in ICR mouse at 50 mg/kg, po measured upto 96 hrs by HPLC-MS/MS analysis; type: ADME, organism-based; parameters: dose 50 mg/kg, time < 96 hrs, route po; settings: in vivo
# [16] = AUC (0 to infinity) in ICR mouse at 50 mg/kg, po measured upto 96 hrs by HPLC-MS/MS analysis; type: ADME, organism-based; parameters: time < 96 hrs, dose 50 mg/kg, route po; settings: in vivo
# [17] = Tmax in ICR mouse at 50 mg/kg, po measured upto 96 hrs by HPLC-MS/MS analysis; type: ADME, organism-based; settings: in vivo
# [18] = Half life in ICR mouse at 5 mg/kg, iv measured upto 96 hrs by HPLC-MS/MS analysis; type: ADME, organism-based; settings: in vivo
# [19] = Clearance in ICR mouse at 5 mg/kg, iv measured upto 96 hrs by HPLC-MS/MS analysis; type: ADME, organism-based; settings: in vivo
# [20] = Oral bioavailability in ICR mouse at 50 mg/kg measured upto 96 hrs by HPLC-MS/MS analysis; type: ADME, organism-based; settings: in vivo
# T1 sequence (P40763 whole entry): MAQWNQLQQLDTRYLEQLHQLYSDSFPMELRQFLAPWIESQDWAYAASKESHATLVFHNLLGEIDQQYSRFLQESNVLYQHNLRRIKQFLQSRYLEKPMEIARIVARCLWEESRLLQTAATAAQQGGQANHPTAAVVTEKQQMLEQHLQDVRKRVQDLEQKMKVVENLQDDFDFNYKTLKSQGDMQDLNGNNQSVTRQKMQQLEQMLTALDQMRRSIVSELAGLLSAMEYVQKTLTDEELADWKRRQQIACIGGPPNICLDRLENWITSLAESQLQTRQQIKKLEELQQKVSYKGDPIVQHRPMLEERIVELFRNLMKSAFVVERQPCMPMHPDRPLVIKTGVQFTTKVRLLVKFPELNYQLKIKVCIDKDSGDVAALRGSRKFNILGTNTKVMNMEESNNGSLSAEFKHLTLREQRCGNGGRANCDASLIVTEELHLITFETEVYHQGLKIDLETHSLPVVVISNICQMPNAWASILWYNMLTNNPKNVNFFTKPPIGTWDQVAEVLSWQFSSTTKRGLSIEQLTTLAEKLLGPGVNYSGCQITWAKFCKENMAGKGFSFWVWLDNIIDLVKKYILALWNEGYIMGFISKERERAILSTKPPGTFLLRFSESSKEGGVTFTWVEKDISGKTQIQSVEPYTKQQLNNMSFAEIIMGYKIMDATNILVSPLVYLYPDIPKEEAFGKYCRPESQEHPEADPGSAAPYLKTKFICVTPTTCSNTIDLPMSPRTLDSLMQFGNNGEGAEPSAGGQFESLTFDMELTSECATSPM
smiles,measurement,setting,value
CN1CCN(c2cc3c(cc2Nc2nnc(-c4ccc(C(F)(F)F)cc4)s2)nc(-c2ccc(F)cc2)n3C2CC2)CC1,Activity,[1],2.1%
same,inhibition,[2],101%
same,pIC50,[3],6.19
same,pIC50,[4],5.53
same,inhibition,[5],Dose-Dependent Effect
same,inhibition,[6],inactive
same,pIC50,[7],4.80
same,inhibition,[8],Active
same,Activity,[9],Dose-Dependent Effect
same,Activity,[10],5.1%
same,Activity,[11],10.7%
same,Activity,[12],79.6%
same,Activity,[13],Non-Toxic
same,concentration at 2 min,[14],549 ng/mL
same,AUC(0-t) at 96 h,[15],17800 ng·h/mL
same,AUC(0-inf),[16],17800 ng·h/mL
same,Tmax,[17],4.67 h
same,half-life,[18],9 h
same,clearance,[19],24.2 mL/min/kg
same,bioavailability,[20],52%
